Experimental data reported in ChEMBL document CHEMBL4325829, “Design and Synthesis of Tubulin and Histone Deacetylase Inhibitor Based on iso-Combretastatin A-4” (J Med Chem, 2018).
pIC50: −log10 of the molar value. ≈ marks a conversion by molar mass, not a printed value. Values belong to the compound of their own block, whether it stands above or below them. Calls of active or inactive are those of the source. The rule behind the calls is not given here.

Columns and labels:
[1] = molecular target: T1, Protein deacetylase HDAC6 (Homo sapiens, UniProt Q9UBN7)
T1 sequence (Q9UBN7 whole entry): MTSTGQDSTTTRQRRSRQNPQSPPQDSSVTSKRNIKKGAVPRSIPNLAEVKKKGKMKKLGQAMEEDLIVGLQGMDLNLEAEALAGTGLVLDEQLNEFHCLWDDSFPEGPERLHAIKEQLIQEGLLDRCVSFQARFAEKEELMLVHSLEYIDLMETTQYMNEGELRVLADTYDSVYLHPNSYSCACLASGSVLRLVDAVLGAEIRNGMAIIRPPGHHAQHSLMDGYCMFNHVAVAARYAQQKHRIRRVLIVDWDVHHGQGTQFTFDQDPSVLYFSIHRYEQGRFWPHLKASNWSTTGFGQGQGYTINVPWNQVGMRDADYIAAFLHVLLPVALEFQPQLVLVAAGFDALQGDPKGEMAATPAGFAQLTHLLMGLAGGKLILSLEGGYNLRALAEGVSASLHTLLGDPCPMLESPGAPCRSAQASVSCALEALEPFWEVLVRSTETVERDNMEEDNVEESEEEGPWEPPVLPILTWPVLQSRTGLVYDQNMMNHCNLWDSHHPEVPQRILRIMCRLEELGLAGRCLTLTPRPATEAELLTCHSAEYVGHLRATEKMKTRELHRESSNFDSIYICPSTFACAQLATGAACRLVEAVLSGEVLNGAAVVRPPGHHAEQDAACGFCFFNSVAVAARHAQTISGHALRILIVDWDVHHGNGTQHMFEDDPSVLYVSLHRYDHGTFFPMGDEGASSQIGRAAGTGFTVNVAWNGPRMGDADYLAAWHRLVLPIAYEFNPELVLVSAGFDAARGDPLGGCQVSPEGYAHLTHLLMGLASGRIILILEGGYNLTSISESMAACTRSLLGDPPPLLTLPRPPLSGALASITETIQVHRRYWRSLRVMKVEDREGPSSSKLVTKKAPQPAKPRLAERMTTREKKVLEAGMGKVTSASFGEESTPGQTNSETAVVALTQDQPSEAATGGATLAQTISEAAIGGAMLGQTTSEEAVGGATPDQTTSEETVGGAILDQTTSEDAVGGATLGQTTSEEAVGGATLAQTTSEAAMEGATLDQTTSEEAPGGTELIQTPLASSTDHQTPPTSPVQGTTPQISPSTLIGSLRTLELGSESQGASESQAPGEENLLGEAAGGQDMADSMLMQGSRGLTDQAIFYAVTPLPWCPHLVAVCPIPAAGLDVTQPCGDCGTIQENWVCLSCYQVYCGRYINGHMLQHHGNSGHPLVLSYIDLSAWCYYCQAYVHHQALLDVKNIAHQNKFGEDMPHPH
Description: Inhibition of human recombinant HDAC6 after 30 mins using fluorogenic substrate by fluorimetric assay

[2] = Inhibition of sheep brain tubulin polymerization assessed as reduction in rate of microtubule assembly by DAPI-fluorescence based assay; parameters: species or system Ovis aries
HCT-116 = experiment: Antiproliferative activity against human HCT116 cells after 72 hrs by MTS assay; format: functional; conditions: Homo sapiens, HCT-116, 72 h
Histone deacetylase 8 = molecular target: T2, Histone deacetylase 8 (Homo sapiens, UniProt Q9BY41); experiment: Inhibition of human recombinant HDAC8 after 30 mins using fluorogenic substrate by fluorimetric assay; conditions: read-out: IC50
T2 sequence (Q9BY41 whole entry): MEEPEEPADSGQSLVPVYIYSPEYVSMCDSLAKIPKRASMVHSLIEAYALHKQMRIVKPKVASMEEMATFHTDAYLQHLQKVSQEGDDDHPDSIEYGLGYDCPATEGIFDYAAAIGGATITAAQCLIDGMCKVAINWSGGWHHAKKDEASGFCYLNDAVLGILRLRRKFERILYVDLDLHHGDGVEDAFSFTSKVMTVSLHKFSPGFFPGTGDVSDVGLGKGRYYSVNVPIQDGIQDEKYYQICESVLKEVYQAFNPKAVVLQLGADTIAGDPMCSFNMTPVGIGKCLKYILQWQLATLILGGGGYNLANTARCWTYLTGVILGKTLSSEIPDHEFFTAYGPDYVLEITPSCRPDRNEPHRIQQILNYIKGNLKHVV

Ovis aries = species on record: Ovis aries; experiment: Inhibition of sheep brain tubulin polymerization assessed as reduction in rate of microtubule assembly at 200 uM by DAPI-fluorescence based assay
[3] = molecular target: T3, Protein deacetylase HDAC6 (Homo sapiens) (UniProt Q9UBN7); experiment: Inhibition of HDAC6 in human HT-29 cells assessed as acetylated alpha-tubulin levels at 25 uM after 24 hrs by Western blot analysis relative to control; format: cell-based
T3 sequence (whole entry): T1 sequence (Q9UBN7 whole entry)

[4] = molecular target: T4, Histone deacetylase 8 (Homo sapiens) (UniProt Q9BY41); experiment: Inhibition of HDAC8 in human HT-29 cells assessed as acetylated SMC3 levels at 25 uM after 6 hrs by Western blot analysis relative to control; format: cell-based
T4 sequence (whole entry): T2 sequence (Q9BY41 whole entry)

[5] = molecular target: T3, Protein deacetylase HDAC6 (Homo sapiens); experiment: Inhibition of HDAC6 in human HT-29 cells assessed as acetylated alpha-tubulin levels at 25 uM after 6 hrs by Western blot analysis relative to control; format: cell-based
[6] = molecular target: T4, Histone deacetylase 8 (Homo sapiens); experiment: Inhibition of HDAC8 in human HT-29 cells assessed as acetylated SMC3 levels at 25 uM after 24 hrs by Western blot analysis relative to control; format: cell-based
HT-29 = experiment: Antiproliferative activity against human HT-29 cells after 72 hrs by MTS assay; format: functional; conditions: Homo sapiens, HT-29, 72 h
K-562R = experiment: Antiproliferative activity against human K562R cells after 72 hrs by MTS assay; format: functional; conditions: Homo sapiens, K-562R, 72 h
BXPC-3 = experiment: Antiproliferative activity against human BxPC3 cells after 72 hrs by MTS assay; format: functional; conditions: Homo sapiens, BXPC-3, 72 h
A549 = experiment: Antiproliferative activity against human A549 cells after 72 hrs by MTS assay; format: functional; conditions: Homo sapiens, A549, 72 h
K562 = experiment: Antiproliferative activity against human K562 cells after 72 hrs by MTS assay; format: functional; conditions: Homo sapiens, K562, 72 h
MCF7 = experiment: Antiproliferative activity against human MCF7 cells after 72 hrs by MTS assay; format: functional; conditions: Homo sapiens, MCF7, 72 h
MIA PaCa-2 = experiment: Antiproliferative activity against human MIAPaCa2 cells after 72 hrs by MTS assay; format: functional; conditions: Homo sapiens, MIA PaCa-2, 72 h
PC-3 = experiment: Antiproliferative activity against human PC3 cells after 72 hrs by MTS assay; format: functional; conditions: Homo sapiens, PC-3, 72 h
U-87 MG = experiment: Antiproliferative activity against human U87 cells after 72 hrs by MTS assay; format: functional, U-87MG ATCC; conditions: Homo sapiens, U-87 MG, 72 h
Histone deacetylase 11 = molecular target: T5, Histone deacetylase 11 (Homo sapiens, UniProt Q96DB2); experiment: Inhibition of human recombinant HDAC11 after 30 mins using fluorogenic substrate by fluorimetric assay; conditions: read-out: IC50
T5 sequence (Q96DB2 whole entry): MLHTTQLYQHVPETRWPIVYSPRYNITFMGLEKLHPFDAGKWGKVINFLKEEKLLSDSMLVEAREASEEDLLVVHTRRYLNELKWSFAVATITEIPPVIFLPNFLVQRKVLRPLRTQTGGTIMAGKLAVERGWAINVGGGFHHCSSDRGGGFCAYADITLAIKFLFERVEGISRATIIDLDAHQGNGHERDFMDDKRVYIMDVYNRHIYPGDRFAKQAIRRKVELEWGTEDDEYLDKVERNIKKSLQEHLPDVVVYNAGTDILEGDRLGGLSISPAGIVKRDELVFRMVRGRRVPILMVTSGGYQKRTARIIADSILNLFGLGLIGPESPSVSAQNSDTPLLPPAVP

[7] = Induction of apoptosis in human BL2 cells assessed as late apoptotic cells at 10 nM after 48 hrs by annexin V-FITC/propidium iodide double staining-based flow cytometry (reference value: 2.1%); format: functional
[8] = Induction of apoptosis in human BL2 cells assessed as early apoptotic cells at 10 nM after 48 hrs by annexin V-FITC/propidium iodide double staining-based flow cytometry (reference value: 8.2%); format: functional
[9] = Aqueous solubility of the compound; format: physicochemical; conditions: water
[10] = Lipophilicity, log P of the compound; format: physicochemical; conditions: octanol/water; read-out: logP
[11] = molecular target: T6, Histone deacetylase (Homo sapiens) (UniProt Q13547+O15379+Q9UBN7+Q92769+Q9UQL6+Q8WUI4+Q9BY41+Q96DB2+P56524+Q9UKV0+Q969S8); experiment: Inhibition of HDAC in human HT-29 cells assessed as gamma-H2AX phosphorylation after 3 days by Western blot analysis; format: cell-based
[12] = molecular target: T6, Histone deacetylase (Homo sapiens); experiment: Inhibition of HDAC in human HT-29 cells assessed as phosphorylated gamma-H2AX levels at 302 nM after 3 days by Western blot analysis relative to control; format: cell-based
[13] = molecular target: T6, Histone deacetylase (Homo sapiens); experiment: Inhibition of HDAC in human HT-29 cells assessed as phosphorylated gamma-H2AX levels at 605 nM after 3 days by Western blot analysis relative to control; format: cell-based

Structure (SMILES): C=C(c1cc(OC)c(OC)c(OC)c1)c1ccc2c(c1)cc(/C=C/C(=O)NO)n2C
pIC50 [1]: 5.42
pIC50 [2]: 5.27
GI50 (HCT-116): 20 nM
pIC50 (Histone deacetylase 8): 5.21

Structure (SMILES): C=C(c1ccc(OC)c(C#CCCCC(=O)OCC)c1)c1cc(OC)c(OC)c(OC)c1
inhibition (Ovis aries): inactive
GI50 (HCT-116): 3000 nM

Structure (SMILES): C=C(c1ccc(OC)c(OCCCCCCC(=O)NO)c1)c1cc(OC)c(OC)c(OC)c1
inhibition (Ovis aries): inactive
GI50 (HCT-116): 2500 nM

Structure (SMILES): C=C(c1cc(OC)c(OC)c(OC)c1)c1ccc2c(c1)c(/C=C/C(=O)NO)cn2C
pIC50 [1]: 5.16
pIC50 [2]: 5.43
pIC50 (Histone deacetylase 11): 5.30
GI50 (HCT-116): 14 nM
pIC50 (Histone deacetylase 8): 6.62

Structure (SMILES): O=C(CCCCCCC(=O)Nc1ccccc1)NO [VORINOSTAT]
Activity [7]: 1.8%
Activity [8]: 6.7%

The next lines start with the values.

inhibition (Ovis aries): inactive
GI50 (HCT-116): 500 nM
Structure (SMILES): C=C(c1ccc(OC)c(OCCCC(=O)NO)c1)c1cc(OC)c(OC)c(OC)c1

pIC50 [2]: 4.70
GI50 (HCT-116): 233 nM
Structure (SMILES): C=C(c1cc(OC)c(OC)c(OC)c1)c1ccc(OC)c(C(=O)NO)c1

pIC50 [2]: 5.62
GI50 (HCT-116): 22 nM
Structure (SMILES): C=C(c1ccc(OC)c(OCC(=O)NO)c1)c1cc(OC)c(OC)c(OC)c1

fold change (FC) [3]: 1.7
fold change (FC) [4]: 3.1
fold change (FC) [5]: 0.5
fold change (FC) [6]: 4.8
GI50 (HT-29): > 10000 nM
GI50 (K-562R): 2200 nM
GI50 (BXPC-3): > 20000 nM
GI50 (A549): > 20000 nM
GI50 (K562): 2010 nM
GI50 (MCF7): 2970 nM
GI50 (MIA PaCa-2): > 20000 nM
GI50 (PC-3): 2660 nM
GI50 (U-87 MG): > 15000 nM
GI50 (HCT-116): 2640 nM
Structure (SMILES): COc1ccc(Cn2ccc3ccc(C(=O)NO)cc32)cc1

pIC50 [2]: 5.14
GI50 (HCT-116): 30 nM
Structure (SMILES): C=C(c1cc(OC)c(OC)c(OC)c1)c1ccc2c(c1)c(C(=O)NO)cn2C

fold change (FC) [3]: 0.9
fold change (FC) [4]: 1.6
pIC50 [1]: 5.30
fold change (FC) [5]: 0.3
fold change (FC) [6]: 2.7
GI50 (HT-29): 63.6 nM
solubility [9]: 88.3 µg/mL (≈ 229 µM)
GI50 (K-562R): 80 nM
logP [10]: 2.13
pIC50 [2]: 5.68
pIC50 (Histone deacetylase 11): 5.10
GI50 (BXPC-3): 25 nM
GI50 (A549): 22 nM
GI50 (K562): 20 nM
GI50 (MCF7): 17 nM
inhibition [11]: Dose-dependent effect
GI50 (MIA PaCa-2): 18 nM
GI50 (PC-3): 28 nM
fold change (FC) [12]: 1.3
GI50 (U-87 MG): 11 nM
fold change (FC) [13]: 2.9
GI50 (HCT-116): 8 nM
pIC50 (Histone deacetylase 8): 7.22
Structure (SMILES): C=C(c1cc(OC)c(OC)c(OC)c1)c1ccc(OC)cc1/C=C/C(=O)NO

pIC50 [2]: 4.09
GI50 (HCT-116): 36 nM
Structure (SMILES): C=C(c1cc(OC)c(OC)c(OC)c1)c1ccc2c(c1)cc(C(=O)NO)n2C
